Assay [1] concerns TLR2 induced IL-6 in peripheral blood mononuclear cells (PBMCs). Put plainly: PBMC TLR2 Induced IL-6 Assay. Type of assay: cell-based, human. The note with it: human PBMCs, 10 μg/ml lipoteichoic acid for 5 hours, IL-6 by ELISA, value without asterisk, read-out: Cell IC50. The method in brief:
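IL-6 ELISA of supernatants after a 5 h challenge with the TLR2 agonist lipoteichoic acid (10 μg/ml). Before stimulation, human PBMCs (250000 cells/well; RPMI, 10% heat-inactivated FCS) received compound for 30 min at 37° C. Values given as IC50 or EC50.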
Background: In an ELISA, binding on a coated surface is turned into a signal by an enzyme label.

The target in assay [2] is IRAK4 (Homo sapiens (Human), UniProt Q9NWZ3). Put plainly: IRAK4 Inhibition Assay. Type of assay: biochemical. The note with it: ATP 500 μM; IRAK4 0.6 nM; 60 min at room temperature. The procedure:
The assays were performed in U-bottom 384-well plates. […] The reaction was initiated by the combination of IRAK4 with substrates and test compounds. The reaction was incubated at room temperature for 60 min. and terminated by adding 45 μL of 35 mM EDTA to each sample. The reaction mixture was analyzed on the Caliper LABCHIP® 3000 (Caliper, Hopkinton, Mass.) by electrophoretic separation of the fluorescent substrate and phosphorylated product.

Molecules are shown by their SMILES. Like-named read-outs stand apart in the source and are kept apart here.

One may read the IC50 as the concentration that inhibits the measured activity by half.

Sequence of IRAK4 (Q9NWZ3 whole entry, species assumed): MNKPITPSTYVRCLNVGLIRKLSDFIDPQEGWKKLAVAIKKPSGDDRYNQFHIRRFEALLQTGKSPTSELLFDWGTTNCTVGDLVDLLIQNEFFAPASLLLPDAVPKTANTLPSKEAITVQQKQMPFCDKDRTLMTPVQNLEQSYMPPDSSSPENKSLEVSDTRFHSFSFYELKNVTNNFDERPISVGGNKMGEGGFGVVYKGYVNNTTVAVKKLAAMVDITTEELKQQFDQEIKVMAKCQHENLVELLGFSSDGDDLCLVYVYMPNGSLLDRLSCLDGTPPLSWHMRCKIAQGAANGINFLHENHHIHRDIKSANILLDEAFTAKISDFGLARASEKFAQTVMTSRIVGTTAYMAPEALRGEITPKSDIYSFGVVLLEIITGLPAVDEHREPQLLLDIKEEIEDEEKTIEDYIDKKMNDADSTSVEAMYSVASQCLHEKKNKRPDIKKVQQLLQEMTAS

Take `CC(C)(O)[C@H](F)CNC(=O)c1cnc(Nc2nc3ccnn3cc2F)cc1NC1CCC(F)C1` (stereo partly drawn) [Example 410]: the IC50 in assay [1] stood at 340 nM; in assay [2], 3.2 nM.

With `CC(C)(O)[C@H](F)CNC(=O)c1cnc(Nc2ccc3ncc(C#N)cc3n2)cc1NC1CCC(F)C1` (stereo partly drawn) [Example 411], the IC50 in assay [1] came out at 92 nM; in assay [2] it was 2.4 nM.

With `CC(C)(O)[C@H](F)CNC(=O)c1cnc(Nc2ccc3ncc(C#N)cc3n2)cc1NC1CCC(F)C1` (stereo partly drawn) [Example 412], the IC50 in assay [1] stood at 109 nM; in assay [2], 2.6 nM.

For `CC(C)(O)[C@H](F)CNC(=O)c1cnc(Nc2ccc3ncc(C#N)cc3n2)cc1NC1CCC(F)C1` (stereo partly drawn) [Example 413], the concentration for half-maximal inhibition (IC50) is 226 nM in assay [1] and 6.3 nM in assay [2].

With `CC(C)Nc1cc(Nc2cnc3[nH]ccc3c2)ncc1C(=O)NC[C@@H](F)C(C)(C)O` [Example 415], the IC50 was 502 nM in assay [1] (Homo sapiens, PBMC, 5 h) and 6.3 nM in assay [2].

Turning to `CC(C)(O)[C@H](F)CNC(=O)c1cnc(Nc2ccc3ncsc3c2)cc1Nc1ncc(CO)s1` [Example 416], the IC50 is 255 nM in assay [1] (Homo sapiens, PBMC, 5 h) and 1.8 nM in assay [2].

For the molecule `CC(C)(O)[C@H](F)CNC(=O)c1cnc(Nc2ccc3ncsc3n2)cc1NC1CCOCC1F` (stereo partly drawn) [Example 417], the IC50 turned out to be 72 nM in assay [1] and 10.9 nM in assay [2].

In the case of `CC(C)(O)[C@H](F)CNC(=O)c1cnc(Nc2ccc3ncsc3c2)cc1NC1C2CCCC1CCC2` (stereo partly drawn) [Example 419], the IC50 in assay [1] (Homo sapiens, PBMC, 5 h) is 184 nM; in assay [2], 5.1 nM.

In the case of `CC(C)(O)[C@H](F)CNC(=O)c1cnc(Nc2ccn3ncc(F)c3c2)cc1NC1CC(F)(F)C1` [Example 420], the IC50 in assay [1] (Homo sapiens, PBMC, 5 h) came out at 184 nM; in assay [2], 3.6 nM.

`CC(C)(O)c1cnc(Nc2cc(Nc3ccn4nccc4n3)ncc2C(=O)NC[C@@H](F)C(C)(C)O)s1` [Example 421]: the IC50 is 131 nM in assay [1] (Homo sapiens, PBMC, 5 h) and 3.3 nM in assay [2].

`CC(C)(O)[C@H](F)CNC(=O)c1cnc(Nc2nc3ccnn3cc2F)cc1NC1CCCOC1` (stereo partly drawn) [Example 422]: the IC50 in assay [1] (Homo sapiens, PBMC, 5 h) was found to be 753 nM; in assay [2] it was 11.3 nM.

For the molecule `CC(CO)Nc1cc(Nc2nc3ccnn3cc2F)ncc1C(=O)NC[C@@H](F)C(C)(C)O` (stereo partly drawn) [Example 423], the IC50 in assay [1] (Homo sapiens, PBMC, 5 h) turned out to be 461 nM; in assay [2], 6.5 nM.

As to `CC(C)Nc1cc(Nc2ccc3ncsc3c2)ncc1C(=O)NC1CCCC(C(C)(C)O)C1` (stereo not drawn) [Example 425], the IC50 is 560 nM in assay [1] (Homo sapiens, PBMC, 5 h) and 13.1 nM in assay [2].

As to `CC(C)Nc1cc(Nc2ccc3ncc(F)cc3n2)ncc1C(=O)NC[C@@H](F)C(C)(C)O` [Example 427], the IC50 in assay [1] (Homo sapiens, PBMC, 5 h) stood at 42 nM; in assay [2] it was 1.5 nM.

For the molecule `CC(C)(O)[C@H](F)CNC(=O)c1cnc(Nc2ccc3ncc(F)cc3n2)cc1NC1CCOCC1` [Example 428], the IC50 is 52 nM in assay [1] (Homo sapiens, PBMC, 5 h) and 2 nM in assay [2].

On to `CC(C)(O)[C@H](F)CNC(=O)c1cnc(Nc2ccc3ncc(F)cc3n2)cc1NC1CC1` [Example 429], for which the IC50 in assay [1] (Homo sapiens, PBMC, 5 h) is 128 nM; in assay [2], 2.1 nM.

Consider `CC(C)(O)[C@H](F)CNC(=O)c1cnc(Nc2ccc3ncccc3n2)cc1NC1CCOCC1` [Example 430], for which the IC50 in assay [1] (Homo sapiens, PBMC, 5 h) was 102 nM; in assay [2] it was 1.6 nM.

Take `CC(C)(O)[C@H](F)CNC(=O)c1cnc(Nc2cnc3[nH]ccc3c2)cc1NC1CC1` [Example 434]: the IC50 in assay [1] (Homo sapiens, PBMC, 5 h) was 52 nM; in assay [2], 6.5 nM.

As for `CC(C)(O)[C@H](F)CNC(=O)c1cnc(Nc2ccn3nccc3c2F)cc1N[C@@H]1CCCC1(F)F` [Example 435], the IC50 is 79 nM in assay [1] (Homo sapiens, PBMC, 5 h) and 2.1 nM in assay [2].

On to `CC(C)(O)[C@H](F)CNC(=O)c1cnc(Nc2nc3ccnn3cc2F)cc1NC1CCOCC1F` (stereo partly drawn) [Example 436], for which the IC50 in assay [1] (Homo sapiens, PBMC, 5 h) is 346 nM; in assay [2], 4.9 nM.

For the molecule `CCNc1cc(Nc2ccc3ncc(F)cc3n2)ncc1C(=O)NC[C@@H](F)C(C)(C)O` [Example 437], the IC50 stood at 214 nM in assay [1] (Homo sapiens, PBMC, 5 h) and 4.9 nM in assay [2].

`CC(C)(O)[C@H](F)CNC(=O)c1cnc(Nc2ccc3ncccc3n2)cc1NC1CCOCC1F` (stereo partly drawn) [Example 438]: the IC50 came to 168 nM in assay [1] and 11.6 nM in assay [2].

Consider `CC(C)(O)[C@H](F)CNC(=O)c1cnc(Nc2ccc3ncccc3n2)cc1NC1CCOCC1F` (stereo partly drawn) [Example 439], for which the IC50 in assay [1] is 64 nM; in assay [2], 3.1 nM.

`CC(C)(O)[C@H](F)CNC(=O)c1cnc(Nc2ccc3ncc(C#N)cc3n2)cc1NC1CCCC1(F)F` (stereo partly drawn) [Example 441]: the IC50 in assay [1] (Homo sapiens, PBMC, 5 h) stood at 28 nM; in assay [2], 1.8 nM.

Take `CC(C)(O)[C@H](F)CNC(=O)c1cnc(Nc2ccc3ncc(C#N)cc3n2)cc1NC1CCCOC1` (stereo partly drawn) [Example 442]: the IC50 in assay [1] (Homo sapiens, PBMC, 5 h) is 106 nM; in assay [2] it was 5.6 nM.

Consider `CC(C)(O)[C@H](F)CNC(=O)c1cnc(Nc2ccc3ncc(C#N)cc3n2)cc1NC1CCCOC1` (stereo partly drawn) [Example 443], for which the IC50 in assay [1] was found to be 125 nM; in assay [2], 4.5 nM.

As for `CC(C)(O)[C@H](F)CNC(=O)c1cnc(Nc2ccc3ncc(C(N)=O)cc3n2)cc1NC1CCC1` [Example 444], the IC50 was 55 nM in assay [1] (Homo sapiens, PBMC, 5 h) and 2.3 nM in assay [2].

For the molecule `CC(C)(O)[C@H](F)CNC(=O)c1cnc(Nc2ncc3ncccc3n2)cc1N[C@H]1CCC[C@@H]1F` [Example 445], the IC50 stood at 106 nM in assay [1] (Homo sapiens, PBMC, 5 h) and 3.8 nM in assay [2].

Take `CC(C)(O)[C@H](F)CNC(=O)c1cnc(Nc2ncc3ncccc3n2)cc1N[C@@H]1CCC[C@@H]1F` [Example 446]: the IC50 in assay [1] (Homo sapiens, PBMC, 5 h) was determined as 94 nM; in assay [2] it was 10.6 nM.

With `CC(C)(O)[C@H](F)CNC(=O)c1cnc(Nc2ncc3ncccc3n2)cc1NC1CCC(F)C1` (stereo partly drawn) [Example 447], the IC50 in assay [1] is 1250 nM; in assay [2], 2 nM.

In the case of `CC(C)(O)[C@H](F)CNC(=O)c1cnc(Nc2ncc3ncccc3n2)cc1NC1CCC(F)C1` (stereo partly drawn) [Example 448], the IC50 was determined as 47 nM in assay [1] and 16.5 nM in assay [2].

For `CC(F)CNc1cc(Nc2ccc3ncsc3c2)ncc1C(=O)NC[C@@H](F)C(C)(C)O` (stereo partly drawn) [Example 450], the IC50 in assay [1] (Homo sapiens, PBMC, 5 h) was 217 nM; in assay [2] it was 1.7 nM.

Regarding `CC(F)CNc1cc(Nc2ccc3ncsc3c2)ncc1C(=O)NC[C@@H](F)C(C)(C)O` (stereo partly drawn) [Example 451], the IC50 in assay [1] is 258 nM; in assay [2], 5 nM.

On to `CC(C)(O)[C@H](F)CNC(=O)c1cnc(Nc2ccn3nccc3n2)cc1NC1CC2CC2C1(F)F` (stereo partly drawn) [Example 452], for which the IC50 in assay [1] (Homo sapiens, PBMC, 5 h) worked out at 239 nM; in assay [2], 2.5 nM.

For `CC(C)(O)c1cnc(Nc2cc(Nc3nc4ccnn4cc3F)ncc2C(=O)NC[C@@H](F)C(C)(C)O)s1` [Example 453], the IC50 in assay [1] (Homo sapiens, PBMC, 5 h) turned out to be 836 nM; in assay [2], 2.6 nM.

Regarding `CC(C)(F)CNc1cc(Nc2cc3scnc3cc2F)ncc1C(=O)NC[C@@H](F)C(C)(C)O` [Example 454], the IC50 turned out to be 38 nM in assay [1] (Homo sapiens, PBMC, 5 h) and 2.8 nM in assay [2].

On to `CC(C)Nc1cc(Nc2nc3scnc3cc2F)ncc1C(=O)NC[C@@H](F)C(C)(C)O` [Example 455], for which the IC50 was 573 nM in assay [1] (Homo sapiens, PBMC, 5 h) and 0.8 nM in assay [2].

Consider `CC(C)Nc1cc(Nc2ccc3ncsc3c2)ncc1C(=O)NC1CCC(C(C)(C)O)CC1` (stereo not drawn) [Example 456], for which the IC50 was found to be 336 nM in assay [1] (Homo sapiens, PBMC, 5 h) and 1.6 nM in assay [2].

With `CC(C)Nc1cc(Nc2nc3ccnn3cc2F)ncc1C(=O)NC1CCC(C(C)(C)O)CC1` (stereo not drawn) [Example 457], the IC50 in assay [1] (Homo sapiens, PBMC, 5 h) was 1550 nM; in assay [2], 3.4 nM.

Source of the values: patent US9546153B2, “Bicyclic heterocycle substituted pyridyl compounds useful as kinase modulators” (BRISTOL-MYERS SQUIBB COMPANY, priority 2012, dated 2017).
